Publication PMC8191290, “Substrate specificities and reaction kinetics of the yeast oligosaccharyltransferase isoforms” (The Journal of Biological Chemistry, 2021)

Biological target: T1, OST6 complex (Saccharomyces cerevisiae, UniProt P39007)
T1 construct: were purified separately from strains expressing only one type of complex; made in house; host or cells: Saccharomyces cerevisiae, BY4742-derived strain ost3::LEU2MX6 OST4-1D4::kanMX6 YEp352-OST6
Assay: In vitro glycosylation assay, acceptor peptides, OST6 complex
Format: biochemical
Details: for OST6 complex activity compared with OST3 complex, in words: synthetic chitobiose-containing LLO, TAMRA-YANATS with 50 μM LLO C20 (Fig. 5A), TAMRA-DANYTK data not shown
Protocol: Figure 5 OST3 complex turns over both glycosylation substrates faster than the OST6 complex, but with similar substrate affinities.A, enzyme activity of OST3 and OST6 complexes. Reactions were performed with 25 μM peptide TAMRA-YANATS, 50 μM LLO C20, and varying concentrations of purified OST3 complex (blue) or OST6 complex (red). Glycopeptide product was measured by UPLC and initial rates of reaction were determined by linear regression of the initial phase of the reaction. Turnover rates were determined by linear regression of the initial rates of reaction measured across the enzyme concentrations of 0.01–0.1 μM for OST3 complex and 0.1–0.5 μM for OST6 complex. Error bars indicate standard deviations from the mean of three reaction sets (n = 3). B, synthetic LLO preferences of OST3 and OST6 complexes. Reactions were performed with 25 μM peptide TAMRA-YANATS, 50 μM of the indicated LLO (C15, C20, or C25) and 0.09 μM of purified OST3 complex (blue) or 0.5 μM OST6 complex (red). Turnover rates were determined by linear regression of the initial phase of the reaction and accounting for the enzyme concentration in the reaction. Error bars indicate standard deviations from the mean of three reactions (n = 3). C, quantification of kinetic parameters for the synthetic LLO C20. Reactions were performed with 25 μM peptide TAMRA-YANATS, varying concentrations of synthetic LLO C20, and either 0.1 μM purified OST3 complex (blue) or 0.5 μM OST6 complex (red). Turnover rates were determined by linear regression of the initial phase of the reaction and accounting for the enzyme concentration in the reaction. The mean of three reactions is shown and the data were fitted by nonlinear regression according to the Michaelis–Menten formula (R^2 = 0.9685 (OST3 complex), 0.9720 (OST6 complex)) using Prism. Error bars indicate standard deviations from the mean (n = 3). Asterisk indicates a data point not included in the Michaelis–Menten fitting, due to poor fitting. D, quantification of kinetic parameters for the peptide TAMRA-YANATS. Reactions were performed with 100 μM synthetic LLO C20, varying concentrations of peptide TAMRA-YANATS, and 0.1 μM purified OST3 complex (blue) or OST6 complex (red). Turnover rates were determined by linear regression of the initial phase of the reaction and accounting for the enzyme concentration in the reaction. The mean of three reactions is shown and the data were fitted by nonlinear regression according to the Michaelis–Menten formula (R^2 = 0.9794 (OST3 complex), 0.9214 (OST6 complex)) using Prism. Error bars indicate standard deviations from the mean (n = 3). Asterisk indicates data points not included in the Michaelis–Menten fitting, due to poor fitting. E, SDS-PAGE (14 % acrylamide) silver staining of 0.2 μg purified OST3 complex, OST6 complex, and OST3 complex purified from alg6Δ cells. Multiple bands of Ost1p and Wbp1p represent the fully and hypoglycosylated forms of the proteins. Ost4p is tagged with the 1D4 epitope for purification. F, enzyme activity of OST complexes. Reactions were performed with 100 μM peptide TAMRA-YANATS, 50 μM LLO C20, and varying concentrations from 0.1 to 0.3 μM of purified OST3 complex, OST6 complex, or OST3 complex purified from alg6Δ cells. Turnover rates were determined as in A by linear regression of the initial rates of reaction across the enzyme concentrations of 0.1–0.3 μM for each OST. Error bars indicate the standard deviation from the mean turnover rate of three reaction sets (n = 3).
TAMRA-labeled peptides with 5-TAMRA at the N-terminus and an amide group at the C-terminus were synthesized by WatsonBio Sciences. Unlabeled peptides (Table S1) were synthesized by Genscript Corp. and were designed so that the asparagine of the glycosylation sequon was in the middle (except for Peptide 8). Lyophilized peptides were dissolved in dimethyl sulfoxide (DMSO), unless specified otherwise, to a 3 mM stock solution and further diluted in ddH2O for reactions. […]

**Q.** With “TAMRA-DANYTK-NH2 [fluorescently labeled hexapeptide TAMRA-DANYTK-NH2 as the acceptor peptide, reference compound]” as the substance, how does the “OST6 complex activity compared with OST3 complex, in words” value read?
**A.** reduced

**Q.** What does the source list for “TAMRA-YANATS [shorter version of Peptide 5 of only six amino acid residues (TAMRA-YANATS)]”?
**A.** kcat/KM (0.1 μM OST6 complex, 100 μM LLO C20): 0.05 min^-1 μM^−s1; kcat (apparent) (0.1 μM OST6 complex, 100 μM LLO C20, varying peptide, 30 °C, n = 3): 0.0383 ± 0.0033 s⁻¹; Km (0.1 μM OST6 complex, 100 μM LLO C20, varying peptide, 30 °C, n = 3, read-out: KM (apparent)): 44.8 ± 5.7 µM; affinity for the peptide substrate, OST6 compared with OST3 complex, in words (100 μM LLO C20): similar; peptide turnover rate of OST6 complex compared with OST3 complex (100 μM LLO C20, TAMRA-YANATS varied): reduced six times; OST6 complex activity compared with OST3 complex, in words: drastically reduced
